Assay results published in US8372848B2, “Melanin-concentrating hormone receptor antagonists and methods of use” (Mixture Sciences, Inc., priority 2004, dated 2013).

Legend:
neuropeptide Y2 = biological target: T1, neuropeptide Y2 (Homo sapiens, UniProt P49146); experiment: Selectivity versus neuropeptide Y2; format: cell-based
T1 sequence (P49146 1-381): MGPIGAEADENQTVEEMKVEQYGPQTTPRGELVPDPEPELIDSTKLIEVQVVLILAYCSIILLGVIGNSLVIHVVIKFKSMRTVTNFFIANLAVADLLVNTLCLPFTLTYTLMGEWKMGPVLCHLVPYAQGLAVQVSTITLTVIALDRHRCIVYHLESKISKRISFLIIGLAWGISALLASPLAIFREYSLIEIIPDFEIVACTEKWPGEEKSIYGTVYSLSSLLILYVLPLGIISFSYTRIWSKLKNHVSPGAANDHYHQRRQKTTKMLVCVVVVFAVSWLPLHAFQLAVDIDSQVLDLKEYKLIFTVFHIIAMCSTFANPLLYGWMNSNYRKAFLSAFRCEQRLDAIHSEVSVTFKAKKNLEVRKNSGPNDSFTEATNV

orexin 1R = biological target: T2, orexin 1R (Homo sapiens, UniProt O43613); experiment: Selectivity versus orexin 1R; format: cell-based
T2 sequence (O43613 1-425): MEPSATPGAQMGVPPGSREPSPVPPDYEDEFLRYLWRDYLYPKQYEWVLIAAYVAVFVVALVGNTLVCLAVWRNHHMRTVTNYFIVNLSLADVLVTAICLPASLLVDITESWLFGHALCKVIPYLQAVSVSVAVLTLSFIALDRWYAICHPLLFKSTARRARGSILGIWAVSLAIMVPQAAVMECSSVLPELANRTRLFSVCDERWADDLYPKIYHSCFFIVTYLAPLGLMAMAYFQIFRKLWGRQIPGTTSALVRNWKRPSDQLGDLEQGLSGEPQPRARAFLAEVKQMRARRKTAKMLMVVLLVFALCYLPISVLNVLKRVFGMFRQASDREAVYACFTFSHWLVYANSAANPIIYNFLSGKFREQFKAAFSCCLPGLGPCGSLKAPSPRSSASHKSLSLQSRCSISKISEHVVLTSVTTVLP

rats [1] = experiment: MCH-induced food intake after icv administration; format: in vivo, rat
Description: To determine inhibitory effects of TPI 1361-17 on MCH-induced food intake, rats were habituated to a wire bottom cage for more than 3 weeks prior to the experiment. Experiments were carried out from 6 a.m. to 7 a.m. when rats were satiated. […] On the other hand, five nmol of TPI 1361-17 suppressed cumulative food intake by 75% even at 4h (FIG. 5B).
To determine the effects of TPI 1361-17 on MCH-induced food intake, rats were randomly divided into three groups: 1) TPI 1361-17 (dissolved in DMSO) and 2 nmol of MCH; 2) MCH 2 nmol, 3) ACSF. Each mixture contained a DMSO equivalent concentration to that of the antagonist solution (up to 5% (v/v)). Ten μl of each solution was administered into lateral ventricle for 2 minutes. The injections were done between 7:00-8:00 a.m., and food intake was monitored for 4 h after the injection.
For animal studies, adult male Sprague-Dawley rats weighing 200-300g were obtained from Charles River Laboratories (Wilmington, Mass.), bearing a 23-gauge stainless steel cannula placed into the right lateral ventricle. Rats were housed individually and maintained on a 12 h light-dark cycle (6:00 am-6:00 pm light) with free access to tap water and rat chaw (PROLAB RMH 2500, containing 23.0% protein, 4.5% fat, gross energy 4.5 kcal/g. PMI nutrition international, LLC. Brentwood, Mo.). Prior to all studies, rats were handled and habituated for 7 days, and 10 μl of artificial cerebrospinal fluid (ACSF: NaCl 124, KCl 5, CaCl2 2.4 MgSO4 2, KH2PO4 1.25, NaHCO3 26 and glucose 10, in mM) was injected through the cannula to minimize stress effects at the time of the experiment. Cannula placement was confirmed in all animals by evaluating the response to 50 ng of angiotensin II. Only animals drinking more than 5 ml of water in 1 h were used in feeding studies.

rats [2] = experiment: Spontaneous food intake after icv administration, Example IV; format: in vivo, rat; conditions: 5 nmol icv
Description: To determine inhibitory effects of TPI 1361-17 on spontaneous food intake, TPI 1361-17 (5 nmol) was administered icv and food intake was measured 0.5 h, 1 h, 2 h, and 4 h after the injection. Food intake was quantified either at the start of either the dark phase, which is considered similar to natural conditions, or the light phase. To synchronize initiation of the food intake and to measure the efficiency of TPI 1361-17, rat food pellets were removed for different lengths of time before the injection. It was observed that TPI 1361-17 reduced spontaneous food intake of rats that have been fasted for 1 hr before the dark phase by 37%. This inhibitory effect was detected within the first 30 minutes of feeding and is not detected later (FIG. 6A).
The two groups of rats that were tested at the beginning of the dark phase were starved for 1 h or 4 h before, being injected with 5 nmol of antagonist or ACSF between 6:00-7:00 p.m. Animals had free access to water. Fifteen minutes after injection, container of regular low-fat diet were placed in the cage, and food consumption was monitored for 4 h. The group of rats that were injected at the beginning of the light phase was starved overnight before being injected at 5 nmol of antagonist or ACSF. Monitoring of the food consumption was identical to that described for the rats starved during the dark phase.
For animal studies, adult male Sprague-Dawley rats weighing 200-300g were obtained from Charles River Laboratories (Wilmington, Mass.), bearing a 23-gauge stainless steel cannula placed into the right lateral ventricle. Rats were housed individually and maintained on a 12 h light-dark cycle (6:00 am-6:00 pm light) with free access to tap water and rat chaw (PROLAB RMH 2500, containing 23.0% protein, 4.5% fat, gross energy 4.5 kcal/g. PMI nutrition international, LLC. Brentwood, Mo.). […]

**Q.** What does the source list for `C[C@@H](CNCc1ccccc1)N1C[C@H](CCCNC(=N)N)N(CCc2cccc(F)c2)C1=S` [TPI 1361-17, N-(3-{(4S)-1-[(1S)-2-(benzylamino)-1-methylethyl]-3-[2-(3-fluorophenyl)ethyl]-2-thioxoimidazolidin-4-yl}propyl)guanidine]?
**A.** Selectivity for MCH1R compared with neuropeptide Y2 (neuropeptide Y2): more than 1,000 fold; Selectivity for MCH1R compared with orexin 1R (orexin 1R): more than 1,000 fold; MCH-induced food intake at the low dose (rats [1]; 1 nmol icv with 2 nmol MCH, reversed over the next two hours): decreased MCH-induced food intake for 1 h and 2h; Suppression of cumulative MCH-induced food intake (rats [1]; 5 nmol icv with 2 nmol MCH, at 4h): 75%; Reduction of MCH-induced food intake, maximal (rats [1]; dose dependent, icv, SD rats, beginning of light phase): up to 75%; Duration of the effect on MCH-induced food intake (rats [1]; icv): over 4 h; Reduction of spontaneous food intake (rats [2]; fasted 1 hr before dark phase, first 30 minutes of feeding): 37%; Effect on spontaneous food intake (rats [2]; fasted 4 h before the dark phase): no apparent effect; Effect on spontaneous food intake (rats [2]; fasted 12 hrs before the light phase): no apparent effect
